Measured values published in patent US20100317647A1 (priority 2009, published 2010).

Target: human Cat S (Homo sapiens, UniProt P25774)
Assay: Cathepsin enzyme inhibition assay (fluorogenic peptide substrate cleavage)
Assay type: biochemical
Details: human Cat S 1 nM; substrate Z-Val-Val-Arg-AMC 20 μM; pH 6.5; fluorescence over 20 minutes
Outline: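 Fluorogenic cleavage of Z-Val-Val-Arg-AMC (20 μM) by 1 nM enzyme in 100 mM potassium phosphate pH 6.5, 5 mM EDTA, 5 mM DTT, 0.001% Triton X-100. Reaction started with substrate; fluorescence (ex 360/em 465 nm) followed over 20 minutes. IC50 by standard methods.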

Sequence of human Cat S (P25774 115-331): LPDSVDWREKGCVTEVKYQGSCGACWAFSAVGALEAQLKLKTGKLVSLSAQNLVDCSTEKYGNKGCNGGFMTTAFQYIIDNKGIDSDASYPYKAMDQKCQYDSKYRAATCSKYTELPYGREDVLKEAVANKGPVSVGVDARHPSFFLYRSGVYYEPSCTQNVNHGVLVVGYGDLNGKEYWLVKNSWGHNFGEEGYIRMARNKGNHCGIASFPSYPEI

## CO[C@@H]1C[C@H](S(=O)(=O)c2ccc(-c3cnn(CC(=O)O)c3)cc2C(F)(F)F)C[C@H]1C(=O)NC1(C#N)CC1 (racemic) [Example 185, (4-{4-[(1R,3R,4R) and (1S,3S,4S)-3-(1-Cyano-cyclopropylcarbamoyl)-4-methoxy-cyclopentanesulfonyl]-3-trifluoromethyl-phenyl}-pyrazol-1-yl)-acetic acid]
  IC50: 0.725 nM

## CO[C@@H]1C[C@H](S(=O)(=O)c2ccc(N3CCN(C4CC4)CC3)cc2C(F)(F)F)C[C@H]1C(=O)NC1(C#N)CC1 (racemic) [Example 215, (1R,2R,4R) and (1S,2S,4S)-4-[4-(4-Cyclopropyl-piperazin-1-yl)-2-trifluoromethyl-benzenesulfonyl]-2-methoxy-cyclopentanecarboxylic acid (1-cyano-cyclopropyl)-amide]
  IC50: 6.6 nM

## CO[C@@H]1C[C@H](S(=O)(=O)c2ccc(N3CCC(O)CC3)cc2C(F)(F)F)C[C@H]1C(=O)NC1(C#N)CC1 (racemic) [Example 207, (1R,2R,4R) and (1S,2S,4S)-4-[4-(4-Hydroxy-piperidin-1-yl)-2-trifluoromethyl-benzenesulfonyl]-2-methoxy-cyclopentanecarboxylic acid (1-cyano-cyclopropyl)-amide]
  IC50: 0.895 nM

## N#CCNC(=O)[C@@H]1C[C@@H](S(=O)(=O)c2ccccc2Cl)C[C@H]1C(=O)N1CCOCC1 [Example 3, (1R,2R,4R)-4-(2-Chloro-benzenesulfonyl)-2-(morpholine-4-carbonyl)-cyclopentanecarboxylic acid cyanomethyl-amide]
  IC50: 0.5 nM

## N#CC1(NC(=O)[C@@H]2C[C@@H](S(=O)(=O)c3ccccc3Cl)C[C@H]2OCc2ccc(Cl)c(F)c2)CC1 (racemic) [Example 249, (1R,2R,4R) and (1S,2S,4S)-4-(2-Chloro-benzenesulfonyl)-2-(4-chloro-3-fluoro-benzyloxy)-cyclopentanecarboxylic acid (1-cyano-cyclopropyl)-amide]
  IC50: 6.95 nM

## CO[C@@H]1C[C@H](S(=O)(=O)c2ccc(N3CCC(F)(F)CC3)cc2C(F)(F)F)C[C@H]1C(=O)NC1(C#N)CC1 (racemic) [Example 178, (1R,2R,4R) and (1S,2S,4S)-4-[4-(4,4-Difluoro-piperidin-1-yl)-2-trifluoromethyl-benzenesulfonyl]-2-methoxy-cyclopentanecarboxylic acid (1-cyano-cyclopropyl)-amide]
  IC50: 0.885 nM

## CO[C@@H]1C[C@H](S(=O)(=O)c2ccc(-n3cc(C)cn3)cc2Cl)C[C@H]1C(=O)NC1(C#N)CC1 (racemic) [Example 149, (1R,2R,4R) and (1S,2S,4S)-4-[2-Chloro-4-(4-methyl-pyrazol-1-yl)-benzenesulfonyl]-2-methoxy-cyclopentanecarboxylic acid (1-cyano-cyclopropyl)-amide]
  IC50: 1.93 nM

## CO[C@@H]1C[C@H](S(=O)(=O)c2ccc(Cl)cc2Cl)C[C@H]1C(=O)NC1(C#N)CC1 (racemic) [Example 50, (1R,2R,4R) and (1S,2S,4S)-4-(2,4-Dichloro-benzenesulfonyl)-2-methoxy-cyclopentanecarboxylic acid (1-cyano-cyclopropyl)-amide]
  IC50: 25 nM

## N#CC1(NC(=O)[C@@H]2C[C@@H](S(=O)(=O)c3ccc(Br)cc3C(F)(F)F)C[C@H]2OC2CCC2)CC1 (racemic) [Example 182, (1R,2R,4R) and (1S,2S,4S)-4-(4-Bromo-2-trifluoromethyl-benzenesulfonyl)-2-cyclobutoxy-cyclopentanecarboxylic acid (1-cyano-cyclopropyl)-amide]
  IC50: 3.8 nM

## CO[C@@H]1C[C@H](S(=O)(=O)c2ccccc2C(F)(F)F)C[C@H]1C(=O)NCC#N (racemic) [Example 47, (1R,2R,4R) and (1S,2S,4S)-2-Methoxy-4-(2-trifluoromethyl-benzenesulfonyl)-cyclopentanecarboxylic acid cyanomethyl-amide]
  IC50: 7.8 nM

## N#CC1(NC(=O)[C@@H]2C[C@@H](S(=O)(=O)c3ccccc3)C[C@H]2C(=O)N2CC3(COC3)C2)CC1 [Example 11, (1R,2R,4R)-4-Benzenesulfonyl-2-(2-oxa-6-aza-spiro[3.3]heptane-6-carbonyl)-cyclopentanecarboxylic acid (1-cyano-cyclopropyl)-amide]
  IC50: 3 nM

## Cc1cc(-c2ccc(S(=O)(=O)[C@H]3C[C@@H](OC4CCC4)[C@H](C(=O)NC4(C#N)CC4)C3)c(C(F)(F)F)c2)ccn1 (racemic) [Example 210, (1R,2R,4R) and (1S,2S,4S)-2-Cyclobutoxy-4-[4-(2-methyl-pyridin-4-yl)-2-trifluoromethyl-benzenesulfonyl]-cyclopentanecarboxylic acid (1-cyano-cyclopropyl)-amide]
  IC50: 0.21 nM

## CO[C@@H]1C[C@H](S(=O)(=O)c2ccc(Oc3ccc(F)cc3)cc2Cl)C[C@H]1C(=O)NC1(C#N)CC1 (racemic) [Example 57, (1R,2R,4R) and (1S,2S,4S)-4-[2-Chloro-4-(4-fluoro-phenoxy)-benzenesulfonyl]-2-methoxy-cyclopentanecarboxylic acid (1-cyano-cyclopropyl)-amide]
  IC50: 21.8 nM

## N#CC1(NC(=O)[C@@H]2C[C@H](S(=O)(=O)c3ccc(F)cc3Cl)C[C@H]2COc2ccc(F)cc2)CC1 (single isomer, unassigned) [Example 146]
  IC50: 2.25 nM

## N#CC1(NC(=O)[C@@H]2C[C@@H](S(=O)(=O)c3ccccc3Cl)C[C@H]2OCc2ccc(Cl)cc2)CC1 (racemic) [Example 222, (1R,2R,4R) and (1S,2S,4S)-4-(2-Chloro-benzenesulfonyl)-2-(4-chloro-benzyloxy)-cyclopentanecarboxylic acid (1-cyano-cyclopropyl)-amide]
  IC50: 5.8 nM

## CO[C@@H]1C[C@H](S(=O)(=O)c2ccc(-c3ccc(S(C)(=O)=O)cc3)cc2C(F)(F)F)C[C@H]1C(=O)NC1(C#N)CC1 (racemic) [Example 75, (1R,2R,4R) and (1S,2S,4S)-4-(4′-Methanesulfonyl-3-trifluoromethyl-biphenyl-4-sulfonyl)-2-methoxy-cyclopentanecarboxylic acid (1-cyano-cyclopropyl)-amide]
  IC50: 0.5 nM

## C[C@@H]1CN(C(=O)[C@@H]2C[C@H](S(=O)(=O)c3ccccc3)C[C@H]2C(=O)NC2(C#N)CC2)C[C@H](C)O1 [Example 16, (1R,2R,4R)-4-Benzenesulfonyl-2-((2S,6R)-2,6-dimethyl-morpholine-4-carbonyl)-cyclopentanecarboxylic acid (1-cyano-cyclopropyl)-amide]
  IC50: 0.4 nM

## N#CC1(NC(=O)[C@@H]2C[C@@H](S(=O)(=O)c3ccccc3)C[C@H]2C(=O)N2CCNCC2)CC1 [Example 14, (1R,2R,4R)-4-Benzenesulfonyl-2-(piperazine-1-carbonyl)-cyclopentanecarboxylic acid (1-cyano-cyclopropyl)-amide]
  IC50: 10.9 nM

## N#CC1(NC(=O)[C@@H]2C[C@@H](S(=O)(=O)c3ccc(OCC(F)(F)F)cc3Cl)C[C@H]2C(=O)N2CC(F)(F)C2)CC1 [Example 134, (1R,2R,4R)-4-[2-Chloro-4-(2,2,2-trifluoro-ethoxy)-benzenesulfonyl]-2-(3,3-difluoro-azetidine-1-carbonyl)-cyclopentanecarboxylic acid (1-cyano-cyclopropyl)-amide]
  IC50: 1.4 nM
